Values quoted from earlier work, collected in PMC3259182 (European Journal of Medicinal Chemistry, 2011).

Assays:
[1] = tested on: NV replicon-harboring cells (HG23 cells); settings: NV genome levels, 24 hr post-treatment, ref [4]
HG23 cells = settings: median toxic dose at 48 hr of treatment, ref [4]

Row | Compound | ED50 [1] [µM] | TD50 (HG23 cells) [µM]
1 | Cl.O=S1(=O)N(CCN2CCOCC2)CCN1Cc1cccc(Oc2ccccc2)c1 [Compound 7c, 2-(2-Morpholinoethyl)-5-(3-phenoxybenzyl)-1,2,5-thiadiazolidine 1,1-dioxide] | 5.2 | 95.4
2 | O=S1(=O)N(CCN2CCCCC2)CCN1Cc1cccc(Oc2ccccc2)c1 [Compound 7d, 2-(3-Phenoxybenzyl)-5-(2-(piperidin-1-yl)ethyl)-1,2,5-thiadiazolidine1,1-dioxide] | 4.7 | 12.3
